Measured values from PMC10045534, “Preparation and Evaluation of 6-Gingerol Derivatives as Novel Antioxidants and Antiplatelet Agents” (Antioxidants, 2023).

Columns and labels:
PAMPA-BBB permeability = assay type: in vitro ADME; conditions: after 4 h at 37 °C in PBS, pH 7.4, mean ± SEM, n = 3; for Papp at 4 h, 500 μM: PAMPA, read-out: PAMPA-BBB Pe
Description: (§1) Preparative purifications over RP-HPLC were performed on a Kinetex XB C18 (5 μm, 250 × 21.2 mm) column on an Armen Spot Prep II integrated HPLC purification system (Gilson, Middleton, WI, USA) with dual-wavelength detection, with an adequately chosen combination of acetonitrile–water, and a flow rate of 15 mL/min. The purity of the compounds obtained was determined by RP-HPLC analyses on a system of two Jasco PU 2080 pumps, a Jasco AS-2055 Plus intelligent sampler connected to a JASCO LC-Net II/ADC equipped with a Jasco MD-2010 Plus PDA detector (Jasco International Co. Ltd., Hachioji, Tokyo, Japan) utilizing a Kinetex C-18 (5 μm, 250 × 4.6 mm) column (Phenomenex Inc., Torrance, CA, USA) and applying a gradient of 30%–100% aqueous AcN in 30 min followed by 100% ACN for 10 min with a flow rate of 1 mL/min. Analysis of samples from the PAMPA and kinetic solubility assays was performed the same way, by using 3-point calibrations and integrating each compound at its UV absorption maximum.
Blood–brain barrier-specific (BBB) permeability measurements were carried out us- ing the PAMPA-BBB model. […] The solutions were sonicated for 10 min at room temperature. To prepare the artificial BBB-specific membrane, 16 mg BPLE were dissolved in 600 μL of n-dodecane:n-hexane (25:75). Each well of the donor plate (MultiscreenTM-IP, MAIPNTR10, pore size […], Merck kGaA) was coated with 5 μL lipid solution and fitted into the acceptor plate containing 300 μL PBS (pH 7.4) with 5% DMSO, and 150–150 μL of the PBS solutions (made from the DMSO stock solutions) were placed on the donor plate’s artificial membrane. The sandwich plate system was covered with a tissue of wet paper and a plastic lid to avoid evaporation of the solvent, and it was incubated at 37 °C for 4 h. In the end, the initial 500 μM solutions ( cD0 ), the donor ( cDt ) and acceptor solution ( cAt ) were analysed by HPLC-UV (see Section 2.1). BBB permeability was calculated using the effective permeability equation used for iso-pH conditions described by A. Avdeef as follows. (2) Pe=−2.303/A·t−τss·1/1+rv·lg−rv+1+rv/1−MR·cDt/cD0 (3) MR=1−cDt/cD0−VAcAt/VDcD0 where A is the filter area (0.3 cm^2), VD and VA are the volumes in the donor (0.15 cm^3) and acceptor phase (0.3 cm^3), t is the incubation time (s), τss is the time to reach steady state (s), cDt is the concentration of the compound in the donor phase at time point t (mol/cm^3), cD0 is the concentration of the compound in the donor phase at time point zero (mol/cm^3), cAt is the concentration of the compound in the acceptor phase at time point t (mol/cm^3), rv is the aqueous compartment volume ratio (VD/VA).

[1] = Kinetic aqueous solubility in PBS pH 7.4; assay type: physicochemical; conditions: after 2 h at 37 °C in PBS, 500 μM target concentration, mean ± SEM, n = 3; for solubility kinetic at 2 h: PBS (pH 7.4), 37 °C, pH 7.4, aqueous buffer, kinetic from dmso stock
Description: as §1
In a 96-well polypropylene plate (Greiner Bio-One, Kremsmünster, Austria), 15 μL stock solutions were added to 285 μL PBS (pH 7.4) to make starting donor solution with 500 μM as target concentration. For each sample, 3 replicates were measured. The samples were covered and shaken at 37 °C, 300 rpm for 2 h (Heidolph Titramax 1000, Heidolph Instruments GmbH & Co. KG, Schwabach, Germany). After that, each sample was transferred into a filter plate (MSSBLPC, Multiscreen Filter plate, Merck kGaA) and filtered (Vaccum Manifold, Merck kGaA, Darmstadt, Germany). The filtrates were transferred into HPLC vials, and acetonitrile (AcN) was added to aliquot to avoid precipitation. The final solvent ratio was AcN:PBS (70:30). Filtrate concentration was determined by HPLC-UV (see Section 2.1) using 3-points calibration.

Compound	Papp at 4 h, 500 μM (PAMPA-BBB permeability) [×10⁻⁶ cm/s]	PAMPA-BBB MR (%) (PAMPA-BBB permeability)	PAMPA-BBB Pe (PAMPA-BBB permeability)	solubility kinetic at 2 h [1] [µM]	Kinetic Solubility [1]
CCCCC[C@H](O)CC(=O)CCc1ccc(O)c(OC)c1 [Compound 1, (S)-5-hydroxy-1-(4-hydroxy-3-methoxyphenyl)decan-3-one]	3.52 ± 0.24	23.8 ± 1.5%	≥ 25 ·10^−7 cm/s		
CCCCC/C=C/C(=O)CCc1ccc(O)c(OC)c1 [Compound 2, 6-shogaol]	3.17 ± 0.36	20.9 ± 3.9%	≥ 25 ·10^−7 cm/s	> 100	
CCCCCCCC(=O)CCc1ccc(O)c(OC)c1 [Compound 3, 4,5-dihydro-6-shogaol]		-/11.0 ± 0.7%		45.2 ± 2.7	
CCCCCCCC(CCc1ccc(O)c(OC)c1)=NO [Compound 4, 1-(4-hydroxy-3-methoxyphenyl)decan-3-one oxime]		-/4.0 ± 11.1%		75.1 ± 7.3	
CCCCC[C@H](O)C[C@H](O)CCc1ccc(O)c(OC)c1 [Compound 5, (3R,5S)-1-(4-hydroxy-3-methoxyphenyl)decane-3,5-diol]	3.39	9.1 ± 7.6%	≥ 25 ·10^−7 cm/s		
CCCCC[C@H](O)C[C@@H](O)CCc1ccc(O)c(OC)c1 [Compound 6, (3S,5S)-1-(4-hydroxy-3-methoxyphenyl)decane-3,5-diol]	2.74 ± 0.16	18.5 ± 2.7%	≥ 25 ·10^−7 cm/s		
CCCCCc1cc(CCc2ccc(O)c(OC)c2)[nH]n1 [Compound 14, 2-methoxy-4-(2-(3-pentyl-1H-pyrazol-5-yl)ethyl)phenol]	1.58 ± 0.08	33.6 ± 4.6%		277 ± 5.5	
CCCCCc1cc(CCc2ccc(O)cc2)[nH]n1 [Compound 15, 4-(2-(3-pentyl-1H-pyrazol-5-yl)ethyl)phenol]	2.07 ± 0.43	3.1 ± 5.7%		203 ± 5.5	

Results, then the compound that gave them:

Papp at 4 h, 500 μM (PAMPA-BBB permeability) [×10⁻⁶ cm/s]	PAMPA-BBB MR (%) (PAMPA-BBB permeability)	PAMPA-BBB Pe (PAMPA-BBB permeability)	solubility kinetic at 2 h [1] [µM]	Kinetic Solubility [1]	Compound
			89.4 ± 3.1		CCCCCc1cc(/C=C/c2ccc(O)cc2)[nH]n1 [Compound 16, (E)-4-(2-(3-pentyl-1H-pyrazol-5-yl)vinyl)phenol]
			10.9 ± 2		CCCCCc1cc(/C=C/c2ccc(O)c(OC)c2)on1 [Compound 17, (E)-2-methoxy-4-(2-(3-pentylisoxazol-5-yl)vinyl)phenol]
				< LOD	CCCCCc1cc(/C=C/c2ccc(O)cc2)on1 [Compound 18, (E)-4-(2-(3-pentylisoxazol-5-yl)vinyl)phenol]
3.22 ± 0.34	12.1 ± 5.2%	≥ 25 ·10^−7 cm/s			CCCCCCCNC(=O)CCc1ccc(O)c(OC)c1 [Compound 22]
